# Measurements reported in PubChem BioAssay (NCI).
# Where “and” joins values, the source holds several entries; their conditions need not be identical. Equal entries are not always repeated.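 Where inhibition never reached the appropriate level, the endpoint shown equals the highest concentration tested. Otherwise, values were interpolated linearly from a five-concentration, 48-hour dose response in 96-well plates. Here, GI50 denotes the concentration required for 50% inhibition of growth. TGI denotes the concentration required for complete inhibition of growth.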
# Experiments:
# Test in all cases: inhibition of tumour cell growth, NCI panel, 48 h
# SK-OV-3 ovarian = tested on: SK-OV-3 ovarian
# ACHN renal = tested on: ACHN renal
# IGROV1 ovarian = tested on: IGROV1 ovarian
# MALME-3M melanoma = tested on: MALME-3M melanoma
# OVCAR-4 ovarian = tested on: OVCAR-4 ovarian
# CAKI-1 renal = tested on: CAKI-1 renal
# SF-539 CNS = tested on: SF-539 CNS
# EKVX NSCLC = tested on: EKVX NSCLC
# HCC-2998 colon = tested on: HCC-2998 colon
# SNB-75 CNS = tested on: SNB-75 CNS
Structure (SMILES),TGI (SK-OV-3 ovarian),TGI (ACHN renal),TGI (IGROV1 ovarian),TGI (MALME-3M melanoma),TGI (OVCAR-4 ovarian),TGI (CAKI-1 renal),TGI (SF-539 CNS),TGI (EKVX NSCLC),TGI (HCC-2998 colon),TGI (SNB-75 CNS),GI50 (SK-OV-3 ovarian),GI50 (ACHN renal),GI50 (IGROV1 ovarian),GI50 (MALME-3M melanoma),GI50 (OVCAR-4 ovarian),GI50 (CAKI-1 renal),GI50 (SF-539 CNS),GI50 (EKVX NSCLC),GI50 (HCC-2998 colon),GI50 (SNB-75 CNS)
COc1c(/C=C/C=O)cc2c(c1OC)OCO2,> 100 µM,> 100 µM,82.4 µM,64 µM,85.6 µM,29.1 µM,> 100 µM,> 100 µM,78.5 µM,> 100 µM,–,–,–,–,–,–,–,–,–,–
CC(=O)O[C@H]1CCN2C(=O)C=CC(OCc3ccccc3)C12 (stereo partly drawn),> 100 µM,> 100 µM,> 100 µM,> 100 µM,> 100 µM,> 100 µM,> 100 µM,> 100 µM,> 100 µM,> 100 µM,–,–,–,–,–,–,–,–,–,–
N/N=C(\c1nc2ccc([N+](=O)[O-])cc2[nH]c1=O)C(O)c1ccc(Cl)c(Cl)c1 (stereo not drawn),> 100 µM,> 100 µM,> 100 µM,> 100 µM,> 100 µM,> 100 µM,> 100 µM,> 100 µM,> 100 µM,> 100 µM,–,–,–,–,–,–,–,–,–,–
O=C1CC(c2ccccc2)Cc2nc3ccc(Br)cc3cc21 (stereo not drawn),> 100 µM,> 100 µM,> 100 µM,> 91.8 µM,> 100 µM,> 100 µM,0.693 µM,> 100 µM,16.8 µM,> 90.1 µM,0.694 µM,0.498 µM,0.428 µM,0.076 µM,6.93 µM,0.459 µM,0.226 µM,0.78 µM,1.57 µM,0.187 µM
CC(C)[C@@](O)(c1ccc2cc(OC(F)F)c(OC(F)F)cc2c1)c1cn[nH]n1,38.1 µM,83.2 µM,63.8 µM,39.2 µM,86 µM,38.2 µM,32.3 µM,29.9 µM,35.8 µM,40.4 µM,16.2 µM,22.6 µM,18.7 µM,16.8 µM,17.1 µM,14.6 µM,16.4 µM,11 µM,18.2 µM,15.1 µM
O=Nc1c(-c2c(O)[nH]c3cc(Br)ccc23)[nH]c2ccccc12,2.94 µM,1.91 µM,2.1 µM,6.44 µM,5.37 µM,1.45 µM,2.88 µM,3.22 µM,3.08 µM,2.96 µM,0.223 µM,0.519 µM,0.14 µM,2.35 µM,1.23 µM,0.109 µM,0.734 µM,1.3 µM,1.6 µM,0.285 µM
COc1cc(/C=C2\CCC/C(=C\c3ccc(O)c(OC)c3)C2=O)ccc1O,15.5 µM and 6.31 µM,4.34 µM and 3.33 µM,8.94 µM and 4.53 µM,5.85 µM and 3.47 µM,43.5 µM and 10.6 µM,8.46 µM and 5.99 µM,4.42 µM and 5.73 µM,24.3 µM and 10.8 µM,8.09 µM and 3.04 µM,12.7 µM and 13.7 µM,2.36 µM,1.82 µM,1.85 µM,0.276 µM,2.54 µM,1.88 µM,–,2.1 µM,1.67 µM,3.64 µM and 1.99 µM
O=[N+]([O-])c1ccc(C(Cl)C(Cl)c2ccc(C(Cl)C(Cl)c3ccc([N+](=O)[O-])cc3[N+](=O)[O-])cc2)c([N+](=O)[O-])c1 (stereo not drawn),> 62 µM and 51.1 µM,6.04 µM and 0.85 µM,11.4 µM and 8.68 µM,2.33 µM and 0.57 µM,8.21 µM and 3.52 µM,5.7 µM and 1.93 µM,5.35 µM and 11.6 µM,6.18 µM and 2.49 µM,6.87 µM and 1.59 µM,–,6.36 µM,0.268 µM,0.571 µM,0.243 µM,0.326 µM,0.35 µM,0.466 µM,0.559 µM,0.473 µM,0.231 µM
COC(=O)[C@]12CC[C@@H](C)[C@H](C)[C@@H]1C1=CC[C@@H]3[C@@]4(C)C[C@@H](OC(=O)/C=C/c5ccccc5)[C@H](O)[C@@](C)(CO)[C@@H]4[C@H](O)C[C@@]3(C)[C@]1(C)CC2,14.3 µM,11.4 µM,14 µM,10.9 µM,13.4 µM,11.9 µM,4.77 µM,11.7 µM,4.88 µM,12.9 µM,3.91 µM,3.11 µM,3.61 µM,2.84 µM,3.23 µM,3.27 µM,2.08 µM,2.94 µM,2.13 µM,2.08 µM
CCC1C(C(=O)Nc2ccccc2C)=C(C)NC(C)=C1c1ccccc1C (stereo not drawn),> 100 µM,> 100 µM,> 100 µM,> 100 µM,> 100 µM,> 100 µM,> 100 µM,> 100 µM,> 100 µM,> 100 µM,–,–,–,–,–,–,–,–,–,–
Cc1ccc(NC(=O)CC/C(CC(=O)C(C)(C)C)=N\NC(=O)C[n+]2ccccc2)cc1C,> 100 µM,> 100 µM,> 100 µM,> 100 µM,> 100 µM,> 100 µM,> 100 µM,> 100 µM,> 100 µM,> 100 µM,–,–,–,–,–,–,–,–,–,–
